According to the supplement of paper PMC10307832:

What was measured:
Test in all cases: relative viability (nuclei count vs DMSO), 5 days (fraction); higher = more cells survive
Tozasertib + Bortezomib = compound: Cc1cc(Nc2cc(N3CCN(C)CC3)nc(Sc3ccc(NC(=O)C4CC4)cc3)n2)n[nH]1 [Tozasertib] + CC(C)C[C@H](NC(=O)[C@H](Cc1ccccc1)NC(=O)c1cnccn1)B(O)O [Bortezomib] (partner 0.002 µM)
How it was run: (§1)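 The day after seeding in 1536-well plates, lung cancer cell lines were treated by pin tool with a single drug, or with a fixed anchor-drug dose together with five library-drug doses (not always all listed) in √10 steps. After 5 days, a combined fix-and-stain solution (final 0.05% Triton X-100, 1% formaldehyde, 1 ug/ml Hoechst) was added. Nuclei counted on 4× images gave relative viability as treated counts over vehicle counts, reported as the median of duplicate plates.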

Tozasertib + Trametinib = compound: Cc1cc(Nc2cc(N3CCN(C)CC3)nc(Sc3ccc(NC(=O)C4CC4)cc3)n2)n[nH]1 [Tozasertib] + CC(=O)Nc1cccc(-n2c(=O)n(C3CC3)c(=O)c3c(Nc4ccc(I)cc4F)n(C)c(=O)c(C)c32)c1 [Trametinib] (partner 0.02 µM)
How it was run: as §1

Tozasertib + Dasatinib = compound: Cc1cc(Nc2cc(N3CCN(C)CC3)nc(Sc3ccc(NC(=O)C4CC4)cc3)n2)n[nH]1 [Tozasertib] + Cc1nc(Nc2ncc(C(=O)Nc3c(C)cccc3Cl)s2)cc(N2CCN(CCO)CC2)n1 [Dasatinib] (partner 0.075 µM)
How it was run: as §1

Tozasertib + AZD7762 = compound: Cc1cc(Nc2cc(N3CCN(C)CC3)nc(Sc3ccc(NC(=O)C4CC4)cc3)n2)n[nH]1 [Tozasertib] + NC(=O)Nc1cc(-c2cccc(F)c2)sc1C(=O)N[C@H]1CCCNC1 [AZD7762] (partner 0.2 µM)
How it was run: as §1

Tozasertib + Olaparib = compound: Cc1cc(Nc2cc(N3CCN(C)CC3)nc(Sc3ccc(NC(=O)C4CC4)cc3)n2)n[nH]1 [Tozasertib] + O=C(c1cc(Cc2n[nH]c(=O)c3ccccc23)ccc1F)N1CCN(C(=O)C2CC2)CC1 [Olaparib] (partner 8 µM)
How it was run: as §1

| Cell Line | relative viability (Tozasertib + Bortezomib; first compound 0.004 µM) | relative viability (Tozasertib + Bortezomib; first compound 0.01265 µM) | relative viability (Tozasertib + Bortezomib; first compound 0.04 µM) | relative viability (Tozasertib + Bortezomib; first compound 0.1265 µM) | relative viability (Tozasertib + Trametinib; first compound 0.004 µM) | relative viability (Tozasertib + Trametinib; first compound 0.01265 µM) | relative viability (Tozasertib + Trametinib; first compound 0.04 µM) | relative viability (Tozasertib + Trametinib; first compound 0.1265 µM) | relative viability (Tozasertib + Dasatinib; first compound 0.004 µM) | relative viability (Tozasertib + Dasatinib; first compound 0.01265 µM) | relative viability (Tozasertib + Dasatinib; first compound 0.04 µM) | relative viability (Tozasertib + Dasatinib; first compound 0.1265 µM) | relative viability (Tozasertib + AZD7762; first compound 0.004 µM) | relative viability (Tozasertib + AZD7762; first compound 0.01265 µM) | relative viability (Tozasertib + AZD7762; first compound 0.04 µM) | relative viability (Tozasertib + AZD7762; first compound 0.1265 µM) | relative viability (Tozasertib + Olaparib; first compound 0.004 µM) | relative viability (Tozasertib + Olaparib; first compound 0.01265 µM) | relative viability (Tozasertib + Olaparib; first compound 0.04 µM) | relative viability (Tozasertib + Olaparib; first compound 0.1265 µM) |
| --- | --- | --- | --- | --- | --- | --- | --- | --- | --- | --- | --- | --- | --- | --- | --- | --- | --- | --- | --- | --- |
| LXF-289 | 1 | 0.917 | 0.972 | 0.777 | 0.69 | 0.625 | 0.685 | 0.571 | 0.226 | 0.198 | 0.232 | 0.0943 | 1.12 | 1.02 | 1.04 | 0.619 | 1.08 | 0.942 | 0.792 | 0.644 |
| NCI-H2126 | 1.12 | 1.1 | 1.22 | 1.14 | 0.562 | 0.535 | 0.632 | 0.552 | 0.587 | 0.674 | 0.674 | 0.485 | 1.01 | – | 1.05 | 1.02 | 0.962 | 0.939 | 0.971 | 0.92 |
| NCI-H650 | 0.663 | 0.68 | 0.976 | 0.523 | 1.06 | 0.918 | 0.894 | 0.823 | 0.577 | 0.384 | 0.452 | 0.389 | 0.935 | 1.07 | 0.797 | 1.05 | 0.381 | 0.315 | 0.357 | 0.325 |
| NCI-H1975 | 0.319 | 0.408 | – | 0.338 | 0.385 | 0.321 | 0.826 | 0.322 | 0.492 | 0.407 | 0.342 | 0.308 | 0.93 | 0.672 | 0.727 | 0.612 | 0.829 | 0.739 | 0.795 | 0.74 |
| HCC-366 | 1.2 | 1 | 1.15 | 0.53 | 0.304 | 0.323 | 0.385 | 0.15 | 0.612 | 0.682 | 0.677 | 0.629 | 0.355 | 0.282 | 0.337 | 0.203 | 0.333 | 0.333 | 0.312 | 0.127 |
| PC-3 [JPC-3] | 0.787 | 0.829 | 0.881 | 0.757 | 0.502 | 0.72 | 0.762 | 0.715 | 0.863 | 0.966 | 1.06 | 1.03 | 0.789 | 0.734 | 0.774 | 0.684 | 0.807 | 1.15 | 1.16 | 1.14 |
| NCI-H727 | 1.07 | 1.04 | 1.02 | 0.53 | 0.358 | 0.395 | 0.38 | 0.37 | 0.386 | 0.38 | 0.378 | 0.286 | 0.446 | 0.481 | 0.716 | 0.455 | 0.659 | 0.79 | 0.678 | 0.624 |
| A-427 | 0.983 | 0.942 | 1.02 | 0.812 | 0.783 | 0.68 | 0.818 | 0.509 | 0.774 | 0.692 | 0.76 | 0.426 | 0.796 | 0.799 | 0.715 | 0.409 | 0.769 | 0.645 | 0.734 | 0.47 |
